This is an account of results in patent US4563468A, “Chemotherapeutic agents” (Burroughs Wellcome Co., priority 1979, dated 1986).

Assay [1] deals with rhinovirus. The experiment in a line: plaque reduction (PR) test. As to conditions: Enterovirus; 50% of the effective dose estimated from dose response curve; plaque numbers as percentages of a control; monolayer cell culture, compound in nutrient agarose overlay; read-out: PR(ED50). It is filed as cell-based. On the procedure: Activity may be detected by the plaque inhibition (PI) test and measured by the plaque reduction (PR) test. Both assays involve the formation of a monolayer cell culture in a petri dish followed by infection with a virus suspension, and then overlaying the culture with nutrient agarose in the form of a gel. This gel ensures that there is no spread of virus throughout the culture and thus areas of localised cell destruction or plaques are formed. Detectable activity is measured with the plaque reduction assay. A range of concentrations of compound of known molarity are incorporated in the nutrient agarose overlay. Plaque suppression is proportional to compound concentration. Plaque numbers are expressed as percentages of a control, and a dose response curve may be drawn. From this curve 50% of the effective dose (ED50) may be estimated.

The test system of assay [2] is rhinovirus. The experiment in a line: Intranasal Administration-Simulation in vitro (plaque inhibition, compound on petri dish lid). Type of assay: cell-based. The settings on record: 1 μg in ethanol applied to petri dish lids, ethanol evaporated; cell sheet covered with agarose gel. From the text: Activity may be detected by the plaque inhibition (PI) test and measured by the plaque reduction (PR) test. Both assays involve the formation of a monolayer cell culture in a petri dish followed by infection with a virus suspension, and then overlaying the culture with nutrient agarose in the form of a gel. This gel ensures that there is no spread of virus throughout the culture and thus areas of localised cell destruction or plaques are formed. In the plaque inhibition test a filter paper disc which holds 0.01 ml when impregnated with a solution of compound is placed on top of the agarose gel. The compound may then diffuse throughout the gel so that its greatest concentration will be around the disc and its lowest concentration towards the periphery of the petri dish. The efficacy of the compound may be detected by observing the zone of inhibition of plaque formation. Petri dishes were prepared, as for the plaque inhibition test and the confluent sheet of cells was covered with a layer of agarose gel. The compound, 2-(3-pyridyl)chroman (1 μg) was dissolved in ethanol, and applied to the lids of the petri dishes. When the ethanol had evaporated, leaving the compound spread over the inside of the lids, these were replaced on the petri dishes.

As for `[O-][n+]1cccc(C2CCc3ccccc3O2)c1` (racemic) [2-(3-pyridyl)chroman N--oxide, 2-(3-pyridyl)chroman N-oxide], the EC50 in assay [1] was 1100 nM.

As to `c1cncc(C2CCc3ccccc3O2)c1` (stereo not shown) [2-(3-pyridyl)chroman], the EC50 in assay [1] was 390 nM. The “inhibition of plaque formulation” value in assay [2] is recorded as “total inhibition”.

Take `Clc1ccc2c(c1)CCC(c1cccnc1)O2` (stereo not shown) [6-chloro-2-(3-pyridyl)chroman]: the EC50 in assay [1] is 42 nM.
